Test results from patent US20020150990A1, “Hepatitis C virus peptides” (priority 1992, published 2002).
Ends that are not written are not given here.

Legend:
antibodies against HCV [1] = experiment: PEPSCAN analysis of overlapping octameric peptides of the HCV core protein N-terminal region with HCV-seropositive sera; assay type: binding, human; details: 16 sera assayed by PEPSCAN
Description: The N-terminal 97 amino acid residues of HCV Core protein SEQ ID NO: 8 was mapped with PEPSCAN analysis. This process involved the serological analysis of sequentially overlapping peptides which spanned the region of interest, to identify epitopic domains. Ninety overlapping octameric peptides were synthesized on polypropylene pin supports according to the manufacturer's instructions (Cambridge Research Biochemicals), such that each peptide overlapped with the preceding sequence by the seven N-terminal residues, and with the subsequent peptide by the seven C-terminal residues. Serum or IgG purified from the serum of individuals confirmed to be seropositive for HCV were used to screen the peptides.
The assay procedure followed was performed basically as described in the manufacturers instruction manual. The time and temperature of the test antibody incubation differed from that prescribed, thereby decreasing the time taken for each assay.
Sera: A total of 16 sera were assayed by PEPSCAN. These consisted of 12 sera from paid U.S. Donors which were identified as being positive for antibodies against HCV in routine screening at the site of donation. The remaining four sera were from patients diagnosed as having non-A non-B hepatitis, and which were subsequently shown to contain antibodies to HCV. Sera were screened either as the crude serum fraction, or as a caprylic acid preparation. Caprylic acid purification of IgG from the sera was performed as described by Stienbuch and Audran (1969) Arch. Biochem. Biophys. 134, 279-284.
Assay: The assay format involves sequentially incubating the various pins in microwell plates containing blocking, test antibody, conjugate, and substrate solutions. The immune complex builds up on the pin with the enzyme labelled conjugate being immobilized on the bound anti-peptide antibody from the test serum. When the pin is then immersed in substrate, the enzyme brings about the colour change which is used to quantify the amount of anti-peptide antibody bound.
Blocking: Pins are immersed in 200 μl of Supercocktail (1% Ovalbumin, 1% bovine serum albumin in 0.15M phosphate buffered saline pH 7.2—0.1% Tween 20) and left to stand at room temperature for 1 hour.
Test antibody: The test antibody is diluted between 1/200 (IgG) and 1/1000 (serum) in supercocktail. The pins are then stood in this solution (175 μl/well) at 37° C. for 1 hour. After this incubation the pins are washed four times in 0.15M phosphate buffered saline pH 7.2—0.05% Tween 20, each at room temperature for 10 minutes.
Conjugate: Rabbit anti-human IgG coupled to horseradish peroxidase is diluted 1/1000 in supercocktail. The peptide bearing pins are then stood in this solution at room temperature for 1 hour. Once again the pins are then washed four times as above.
Substrate: The substrate solution is made up fresh for each assay. To 100 ml of 0.1M phosphate, 0.08M citrate buffer pH 4.0 is dissolved 50 mg of 2,2′-AZINO-bis (3-ethylbenzthiazo-linsulphonic acid (ABTS) and 0.3 μl/ml 30% hydrogen peroxide is added. The pins are immersed in the wells containing substrate solution (150 μl/well) and incubated at room temperature in the dark. Once sufficient colour has developed the reaction is stopped by removing the pins. The plates are then read immediately in a spectrophotometric plate reader at a wavelength of 405 nm. The absorbance values are then plotted against pin number. The epitopic domains are then defined as the continuous sequence of amino acids common to all positive pins in the domain i.e.

antibodies against HCV [2] = experiment: Replacement Net analysis of the core immunodominant epitope YLLPRR with 12 paid donor human sera; assay type: binding; details: n = 12 sera; for Frequency of relative signal strength: All: acceptable when signal 80% of the parent sequence or greater; for Frequency of relative signal strength: 2nd-5th / Frequency of relative signal strength: 6th-10th / Frequency of relative signal strength: Below 10th / Frequency of relative signal strength: Highest: rank of replacement residue at that position
Description: The Replacement Net Method was used to sequentially replace each of the constituent amino acid residues in the epitope with each of the other genetically encoded amino acids.
For Replacement Net analysis, a parent sequence is entered into the Epitope Mapping Software provided by Cambridge Research Biochemicals, and a set of replacement peptides is generated. This process was performed for the six amino acid residue immunodominant core epitope of HCV. The peptides were synthesized on polypropylene pins as directed by the manufacturer (CRB). The Assay format was identical to that followed for PEPSCAN above.
The Replacement Net of the core immunodominant epitope sequence Tyr-Leu-Leu-Pro-Arg-Arg (YLLPRR) (SEQ ID NO: 1 and 2) with the 12 paid donor human sera as described above was considered.
For each position within the epitope, the frequency of each replacement residue as an acceptable replacement for the parent sequence is given. Replacement residues were deemed acceptable when the signal of the new peptide was 80% of the parent sequence or greater.
The residue in italics is the parent sequence.

[3] = listed as 2-Leucine L, epitope position 2-Leucine, residue L
[4] = listed as 3-Leucine L, epitope position 3-Leucine, residue L
[5] = listed as 5-Arginine R, epitope position 5-Arginine, residue R
[6] = listed as 6-Arginine R, epitope position 6-Arginine, residue R

YLLPRR [YLLPRR]
Detection of the epitope by sera (antibodies against HCV [1]): detected to a greater or lesser extent by all of the sera tested | Frequency of relative signal strength: All (antibodies against HCV [2]; listed as 1-Tyrosine Y): 11 | Frequency of relative signal strength: All (antibodies against HCV [2]; [3]): 8 | Frequency of relative signal strength: All (antibodies against HCV [2]; [4]): 3 | Frequency of relative signal strength: All (antibodies against HCV [2]; listed as 4-Proline P): 5 | Frequency of relative signal strength: All (antibodies against HCV [2]; [5]): 10 | Frequency of relative signal strength: All (antibodies against HCV [2]; [6]): 11 | Frequency of relative signal strength: 2nd-5th (antibodies against HCV [2]; listed as 1-Tyrosine Y): 3 | Frequency of relative signal strength: 6th-10th (antibodies against HCV [2]; listed as 1-Tyrosine Y): 5 | Frequency of relative signal strength: Below 10th (antibodies against HCV [2]; listed as 1-Tyrosine Y): 1 | Frequency of relative signal strength: Highest (antibodies against HCV [2]; listed as 1-Tyrosine Y): 2 | Frequency of relative signal strength: 2nd-5th (antibodies against HCV [2]; [3]): 2 | Frequency of relative signal strength: 6th-10th (antibodies against HCV [2]; [3]): 3 | Frequency of relative signal strength: Below 10th (antibodies against HCV [2]; [3]): 2 | Frequency of relative signal strength: Highest (antibodies against HCV [2]; [3]): 1 | Frequency of relative signal strength: 2nd-5th (antibodies against HCV [2]; [4]): 0 | Frequency of relative signal strength: 6th-10th (antibodies against HCV [2]; [4]): 1 | Frequency of relative signal strength: Below 10th (antibodies against HCV [2]; [4]): 0 | Frequency of relative signal strength: Highest (antibodies against HCV [2]; [4]): 2 | Frequency of relative signal strength: 2nd-5th (antibodies against HCV [2]; listed as 4-Proline P): 1 | Frequency of relative signal strength: 6th-10th (antibodies against HCV [2]; listed as 4-Proline P): 1 | Frequency of relative signal strength: Below 10th (antibodies against HCV [2]; listed as 4-Proline P): 0 | Frequency of relative signal strength: Highest (antibodies against HCV [2]; listed as 4-Proline P): 3 | Frequency of relative signal strength: 2nd-5th (antibodies against HCV [2]; [5]): 2 | Frequency of relative signal strength: 6th-10th (antibodies against HCV [2]; [5]): 1 | Frequency of relative signal strength: Below 10th (antibodies against HCV [2]; [5]): 7 | Frequency of relative signal strength: Highest (antibodies against HCV [2]; [5]): 0 | Frequency of relative signal strength: 2nd-5th (antibodies against HCV [2]; [6]): 1 | Frequency of relative signal strength: 6th-10th (antibodies against HCV [2]; [6]): 5 | Frequency of relative signal strength: Below 10th (antibodies against HCV [2]; [6]): 3 | Frequency of relative signal strength: Highest (antibodies against HCV [2]; [6]): 2
